Data on five compounds can be found in ChEMBL document CHEMBL1135579, “Serine-threonine protein phosphatase inhibitors: development of potential therapeutic strategies” (J Med Chem, 2002).

As usually defined, the IC50 is the point on the concentration scale where inhibition reaches its midpoint. A higher IC50 goes with lower potency. By GI50 is commonly meant the concentration at which growth is held to half of that of the control.

Test [1] can be described thus: Exogenous inhibition concentration of Serine/threonine protein phosphatase 2B (PP2B).
Test [2] can be described thus: Selectivity for interaction at Serine/threonine protein phosphatase 2B (PP2B). Conditions: read-out: Ki app.
Test [3] is described as follows: Exogenous inhibition of Serine/threonine protein phosphatase 1 (PP1). The arrangement: species or system Homo sapiens.
Test [4] in a line: Exogenous inhibition concentration of Serine/threonine protein phosphatase 2C ([…]).
The nature of test [5]: Exogenous inhibition concentration of Serine/threonine protein phosphatase 2A (PP2A).
The nature of test [6]: Exogenous inhibition concentration of Serine/threonine protein phosphatase 2C (PP2C); NI means no inhibition.
Test [7] in a line: Exogenous inhibition concentration of Serine/threonine protein phosphatase 5 (PP5).
Test [8] deals with T1, Serine/threonine-protein phosphatase PP1-gamma catalytic subunit (Homo sapiens, UniProt P36873, E275R). The experiment in a line: Inhibition of Serine/threonine protein phosphatase 1 (PP1) mutants by natural toxins in E275R.
T1 sequence (P36873 2-323 E275R limits assumed): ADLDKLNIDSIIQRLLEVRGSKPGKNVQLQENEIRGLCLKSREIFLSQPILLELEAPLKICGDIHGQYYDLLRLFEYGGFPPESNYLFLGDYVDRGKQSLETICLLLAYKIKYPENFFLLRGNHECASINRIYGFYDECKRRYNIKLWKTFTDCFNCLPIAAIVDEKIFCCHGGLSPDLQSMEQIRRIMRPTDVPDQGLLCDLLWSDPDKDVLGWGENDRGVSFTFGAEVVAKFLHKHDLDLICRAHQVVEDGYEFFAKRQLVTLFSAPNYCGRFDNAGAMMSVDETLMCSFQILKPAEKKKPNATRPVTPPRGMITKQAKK
Test [9] deals with T2, Serine/threonine-protein phosphatase PP1-gamma catalytic subunit (Homo sapiens, UniProt P36873, R96A). The experiment in a line: Inhibition of Serine/threonine protein phosphatase 1 (PP1) mutants by natural toxins in R96A.
T2 sequence (P36873 2-323 R96A limits assumed): as the sequence (P36873 2-323 E275R limits assumed) above, with R95A, R274E counted along it
Test [10] is described as follows: Exogenous inhibition concentration of Serine/threonine protein phosphatase 4 (PP4).
Test [11] has as its target T3, Serine/threonine-protein phosphatase PP1-gamma catalytic subunit (Homo sapiens, UniProt P36873, Y272F). The experiment in a line: Inhibition of Serine/threonine protein phosphatase 1 (PP1) mutants by natural toxins in Y272F.
For test [12], the target named is T4, Serine/threonine-protein phosphatase PP1-gamma catalytic subunit (Homo sapiens, UniProt P36873). The experiment in a line: Inhibition of Serine/threonine protein phosphatase 1 (PP1) mutants by natural toxins in wild type.
Target sequence in this assay (P36873 2-323 limits assumed, stated change not applied): as the sequence (P36873 2-323 E275R limits assumed) above, with R274E counted along it
The target in test [13] is T5, Serine/threonine-protein phosphatase PP1-gamma catalytic subunit (Homo sapiens, UniProt P36873, C127S). The experiment in a line: Inhibition of Serine/threonine protein phosphatase 1 (PP1) mutants by natural toxins in C127S.
T5 sequence (P36873 2-323 C127S limits assumed): as the sequence (P36873 2-323 E275R limits assumed) above, with C126S, R274E counted along it
Test [14] concerns the target T6, Serine/threonine-protein phosphatase PP1-gamma catalytic subunit (Homo sapiens, UniProt P36873, H248N). The test can be described thus: Inhibition of Serine/threonine protein phosphatase 1 (PP1) mutants by natural toxins in H248N.
Test [15] has as its target T7, Serine/threonine-protein phosphatase PP1-gamma catalytic subunit (Homo sapiens, UniProt P36873, N124D). The experiment in a line: Inhibition of Serine/threonine protein phosphatase 1 (PP1) mutants by natural toxins in N124D.
For test [16], the target named is T8, Serine/threonine-protein phosphatase PP1-gamma catalytic subunit (Homo sapiens, UniProt P36873, D208A). The experiment in a line: Inhibition of Serine/threonine protein phosphatase 1 (PP1) mutants by natural toxins in D208A.
T8 sequence (P36873 2-323 D208A limits assumed): as the sequence (P36873 2-323 E275R limits assumed) above, with D207A, R274E counted along it
Test [17] addresses T9, Serine/threonine-protein phosphatase PP1-gamma catalytic subunit (Homo sapiens, UniProt P36873, R221S). The experiment in a line: Inhibition of Serine/threonine protein phosphatase 1 (PP1) mutants by natural toxins in R221S.
Test [18] has as its target T10, Serine/threonine-protein phosphatase PP1-gamma catalytic subunit (Homo sapiens, UniProt P36873, D220V). The experiment in a line: Inhibition of Serine/threonine protein phosphatase 1 (PP1) mutants by natural toxins in D220V.
Test [19] addresses T5, Serine/threonine-protein phosphatase PP1-gamma catalytic subunit. The test can be described thus: Inhibition of Serine/threonine protein phosphatase 1 (PP1) mutant type C127S by compound was evaluated.
Test [20] addresses T9, Serine/threonine-protein phosphatase PP1-gamma catalytic subunit. The test can be described thus: Inhibition of Serine/threonine protein phosphatase 1 (PP1) mutant type R221S by compound was evaluated.
For test [21], the target named is T10, Serine/threonine-protein phosphatase PP1-gamma catalytic subunit. The test can be described thus: Inhibition of Serine/threonine protein phosphatase 1 (PP1) mutant type D220V by compound was evaluated.
Test [22] addresses T7, Serine/threonine-protein phosphatase PP1-gamma catalytic subunit. The experiment in a line: Inhibition of Serine/threonine protein phosphatase 1 (PP1) mutant type N124D by compound was evaluated.
In test [23] the target is T6, Serine/threonine-protein phosphatase PP1-gamma catalytic subunit. The test can be described thus: Inhibition of Serine/threonine protein phosphatase 1 (PP1) mutant type H248N by compound was evaluated.
The target in test [24] is T2, Serine/threonine-protein phosphatase PP1-gamma catalytic subunit. The experiment in a line: Inhibition of Serine/threonine protein phosphatase 1 (PP1) mutant type R96A by compound was evaluated.
Test [25] concerns the target T1, Serine/threonine-protein phosphatase PP1-gamma catalytic subunit. The experiment in a line: Inhibition of Serine/threonine protein phosphatase 1 (PP1) mutant type E275R by compound was evaluated.
Test [26] addresses T8, Serine/threonine-protein phosphatase PP1-gamma catalytic subunit. The experiment in a line: Inhibition of Serine/threonine protein phosphatase 1 (PP1) mutant type D208A by compound was evaluated.
The target of test [27] is T3, Serine/threonine-protein phosphatase PP1-gamma catalytic subunit. The test can be described thus: Inhibition of Serine/threonine protein phosphatase 1 (PP1) mutant type Y272F by compound was evaluated.
Test [28] can be described thus: Inhibition of growth after 72 hr continuous exposure to test compounds in colon HT-29 tumor cell lines. The test is classed as functional. Particulars: Homo sapiens, HT-29, 72 h.
Test [29] in a line: Inhibition of growth after 72 hr continuous exposure to test compounds in Ovarian A2780 tumor cell lines. Format: functional. Particulars: A2780, 72 h.
Test [30] in a line: Inhibition of growth after 72 hr continuous exposure to test compounds in Ovarian ADDP tumor cell lines. The test is classed as functional.
Test [31] in a line: Inhibition of growth after 72 hr continuous exposure to test compounds in Osteosarcoma 143B tumor cell lines. The test is classed as functional. Conditions: Homo sapiens.
The target in test [32] is T4, Serine/threonine-protein phosphatase PP1-gamma catalytic subunit. The test can be described thus: Inhibition of Serine/threonine protein phosphatase 1 by anhydride modified Cantharidin analogues.
Target sequence in this assay (P36873 whole entry): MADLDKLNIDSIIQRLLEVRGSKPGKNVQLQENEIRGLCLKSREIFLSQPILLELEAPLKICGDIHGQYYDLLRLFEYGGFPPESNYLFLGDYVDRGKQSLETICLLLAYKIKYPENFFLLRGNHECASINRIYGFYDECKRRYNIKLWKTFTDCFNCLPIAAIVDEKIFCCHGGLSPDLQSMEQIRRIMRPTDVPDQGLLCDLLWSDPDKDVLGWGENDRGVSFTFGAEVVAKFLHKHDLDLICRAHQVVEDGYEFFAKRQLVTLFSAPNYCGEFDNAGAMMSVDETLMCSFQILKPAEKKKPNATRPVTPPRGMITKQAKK
For test [33], the target named is T11, Serine-threonine protein phosphatase 2A regulatory subunit (Gallus gallus) (UniProt Q8AWE3).
T11 sequence (whole entry): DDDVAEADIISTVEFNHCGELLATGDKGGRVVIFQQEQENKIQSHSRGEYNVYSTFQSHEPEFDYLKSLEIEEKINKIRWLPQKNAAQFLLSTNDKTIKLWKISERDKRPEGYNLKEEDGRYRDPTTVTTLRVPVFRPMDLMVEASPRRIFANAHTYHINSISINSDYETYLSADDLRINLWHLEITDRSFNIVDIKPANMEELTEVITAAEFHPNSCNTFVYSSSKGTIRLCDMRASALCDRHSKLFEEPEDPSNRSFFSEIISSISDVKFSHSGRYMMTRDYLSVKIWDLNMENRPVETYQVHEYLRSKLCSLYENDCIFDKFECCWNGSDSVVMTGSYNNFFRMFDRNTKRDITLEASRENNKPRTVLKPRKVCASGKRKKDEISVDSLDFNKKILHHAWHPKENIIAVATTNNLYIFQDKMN
The experiment in a line: Tested for selective inhibition of Serine/threonine protein phosphatase 2A (PP2A) with respect to inhibition of Serine/threonine protein phosphatase 1 (PP1).

Test [34] can be described thus: Inhibition of growth after 72 hr continuous exposure to test compounds in Colon HCT 116 tumor cell lines. Format: functional. Conditions: Homo sapiens, HCT-116, 72 h.
Test [35] has as its target T12, Serine-threonine protein phosphatase 2A regulatory subunit (Gallus gallus, UniProt Q8AWE3).
T12 sequence (Q8AWE3 whole entry): T11 sequence (whole entry)
The test can be described thus: Inhibition of Serine/threonine protein phosphatase 2A by anhydride modified Cantharidin analogues.

Numbered stars: 1 amine (or outer) side, 2 acyl side, 3 side chain; on linkers, the order of the positions; unused ones are H or OH. Bridge positions count the residues as written; N and C are the ends. Square brackets hold non-standard residues; d marks the D form. Peptide text beside a SMILES is read from it. Adda = CO[C@@H](Cc1ccccc1)[C@@H](C)/C=C(C)/C=C/[C@H](N[*:1])[C@H](C)C(=O)[*:2]; dAsp(3S-Me) = C[C@H](C(=O)[*:3])[C@@H](N[*:1])C(=O)[*:2]; d(γGlu) = O=C(O)[C@@H](CCC(=O)[*:2])N[*:1]; NMeDha = C=C(NC)C(=O)O A value given as a limit tells only on which side of the number the result lay.

T3 sequence (P36873 2-323 Y272F limits assumed): as the sequence (P36873 2-323 E275R limits assumed) above, with Y271F, R274E counted along it
T6 sequence (P36873 2-323 H248N limits assumed): as the sequence (P36873 2-323 E275R limits assumed) above, with H247N, R274E counted along it
T7 sequence (P36873 2-323 N124D limits assumed): as the sequence (P36873 2-323 E275R limits assumed) above, with N123D, R274E counted along it
T9 sequence (P36873 2-323 R221S limits assumed): as the sequence (P36873 2-323 E275R limits assumed) above, with R220S, R274E counted along it
T10 sequence (P36873 2-323 D220V limits assumed): as the sequence (P36873 2-323 E275R limits assumed) above, with D219V, R274E counted along it

`O=C(O)C1C2C[C@H](COC(=O)C3C[C@H]3c3ccccc3)[C@@H](O2)C1C(=O)O` (some centres not stated): the 50% inhibitory concentration (IC50) in test [1] is 11.5 µM; in [3], 4 µM. Moreover, in test [2], the Ki was found to be 0.5 µM.
On to `CO[C@H]([C@H](O)CC(=O)[C@@H](C)[C@@H](O)CC[C@@H](C)[C@@H]1O[C@]2(CC[C@@H](C)[C@H](CC[C@H](C)C(C)=O)O2)CC[C@@H]1C)[C@H](OC(=O)C[C@@H](O)C1=C(C)C(=O)OC1=O)C(C)C` [TAUTOMYCIN], for which the half-maximal inhibitory concentration (IC50) was 70000 µM in test [4], 0.0007 µM in test [5], “no inhibition” in test [6] and 0.0007 µM in [3].
`C=C1C(=O)N[C@H](C)C(=O)N[C@@H](CC(C)C)C(=O)N[C@@H](C(=O)O)[C@H](C)C(=O)N[C@@H](CCCNC(=N)N)C(=O)N[C@@H](/C=C/C(C)=C/[C@H](C)[C@H](Cc2ccccc2)OC)[C@H](C)C(=O)N[C@@H](C(=O)O)CCC(=O)N1C` [MICROCYSTIN-LR] (R[Adda][d(γGlu)][NMeDha][dA]L[dAsp(3S-Me)]-OH; lactam N-7): the IC50 in test [7] is more than 0.001 µM; in test [8], 10 pM; in [9] it was 0.035 µM; in test [10], 8 pM; in test [11], 0.0008 µM; in test [12], 0.02 nM. Besides, the IC50 was found to be 0.00056 µM in test [13]; 0.035 µM in [14]; 0.2 µM in [15]; 0.0019 µM in [16]; 0.029 µM in test [17]; 20 pM in test [18]. For the same compound, the IC50 entry in test [6] was “no inhibition”.
As to `C=C1[C@@H](O)[C@@H]2O[C@]3(CC[C@H](/C=C/[C@@H](C)[C@@H]4CC(C)=C[C@@]5(O[C@H](C[C@@](C)(O)C(=O)O)CC[C@H]5O)O4)O3)CC[C@H]2O[C@@H]1[C@@H](O)C[C@H](C)[C@H]1O[C@@]2(CCCCO2)CC[C@H]1C` [OKADAIC ACID], the half-maximal inhibitory concentration (IC50) was 0.078 µM in test [19]; more than 5 µM in [20]; 0.028 µM in test [21]; 200 pM in [10]; more than 5 µM in test [22]; more than 5 µM in test [23]. Further, the IC50 in test [12] was 45 nM; in [24], 0.26 µM; in test [25], 0.048 µM; in [1], more than 10000 µM; in test [26], more than 5 µM; in test [27] it was 1.15 µM. The half-maximal inhibitory concentration (IC50) entry is “no inhibition” in test [6] and 0.003 µM in test [3].
Take `CCOC(=O)C1C(C(=O)O)C2CC[C@H]1O2` (some centres not stated): the GI50 came out at 243 µM in test [28]; 185 µM in test [29]; 330 µM in test [30]; 437 µM in test [31]; 266 µM in test [34]. For the same compound, the half-inhibitory concentration (IC50) in [32] came out at 2.96 µM; in [35], 0.45 µM. In [33], the PP2A Selectivity came out at 6.6.
